In patent publication US8143315B2, “Salts of the active substance rasagiline” (priority 2006, dated 2012):
Where a name gives a salt, the structure may show the parent alone. Read-outs that look alike come from different tables or passages of the source.

Key:
[1] = Determination of hygroscopicity (storage in humidity chambers); format: physicochemical; conditions: storage below 93% humidity, room temperature
[2] = Particle size distribution by laser diffraction; conditions: for d(0.1) ± SD / d(0.5) ± SD / d(0.9) ± SD: average of three measurement cycles, dispersant low-viscosity paraffin
[3] = Determination of solubility; conditions: for pH of the saturated solution / solubility: one-hour storage at 37° C.; for solubility in words: general description; for solubility: HPLC
[4] = for appearance / total content of chemical contaminations / water content: 40° C./75% relative humidity, open glass bottle; for appearance after storage under humid conditions: 40° C., 75% relative humidity in an open glass bottle (general description, time not stated)
[5] = for appearance: 60° C., closed glass bottle; for appearance / agglomerates of the salt as produced: immediately after production (general description); for formation of agglomerates after long storage: above all dry storage (general description); for agglomerates after storage: storage in a closed glass bottle (general description, time not stated)
[6] = tablets, 60° C. closed glass bottle
[7] = Granulation 1 with mannitol (55%)
[8] = Direct compression without mannitol, 4 weeks
[9] = Direct compression without mannitol, initial value
[10] = Granulation 1 with mannitol (55%), 4 weeks
[11] = Granulation 1 with mannitol (55%), initial value
[12] = Granulation 2 without mannitol, 4 weeks
[13] = Granulation 2 without mannitol, initial value

C#CCN[C@@H]1CCc2ccccc21.C#CCN[C@@H]1CCc2ccccc21.O=S(=O)(O)CCS(=O)(=O)O [Rasagiline edisilate, Rasagiline Edisilate]
water absorption (hygroscopicity) [1]: no water absorption
fraction ≦ 250 μm [2]: 100.0%
d(0.1) ± SD [2]: 2.7 ± 0.01 μm
d(0.5) ± SD [2]: 12.8 ± 0.08 μm
d(0.9) ± SD [2]: 35.1 ± 0.36 μm
pH of the saturated solution ([3]; 0.1 N HCl): 1.0
pH of the saturated solution ([3]; Demineralized water): 4.4
pH of the saturated solution ([3]; USP acetate buffer, pH 4.5): 4.4
pH of the saturated solution ([3]; USP phosphate buffer, pH 6.8): 6.2
solubility in words [3]: dissolves very rapidly and well
solubility in citric acid solution [7]: very high
solubility in citric acid solution (Granulation 2 without mannitol): very high
appearance ([4]; 4 weeks): unchanged
appearance ([4]; 8 weeks): unchanged
appearance ([4]; 12 weeks): unchanged
appearance ([5]; 4 weeks): unchanged
appearance ([5]; 8 weeks): unchanged
appearance ([5]; 12 weeks): unchanged
appearance / agglomerates of the salt as produced [5]: white crystal powder which is free of agglomerates
formation of agglomerates after long storage [5]: does not form any agglomerates
portion of decomposed active substance [6, 8]: 0.40%
portion of decomposed active substance [6, 9]: 0.00%
portion of decomposed active substance [6, 10]: 1.4%
portion of decomposed active substance [6, 11]: 0.00%
portion of decomposed active substance [6, 12]: 0.79%
portion of decomposed active substance [6, 13]: 0.00%

C#CCN[C@@H]1CCc2ccccc21 [Rasagiline hydrochloride]
portion of decomposed active substance ([6]; Direct compression without mannitol, 4 weeks, hydrochloride): 1.5%
portion of decomposed active substance ([6]; Granulation 1 with mannitol (55%), 4 weeks, hydrochloride): 2.4%
portion of decomposed active substance ([6]; Granulation 2 without mannitol, 4 weeks, hydrochloride): 1.9%

C#CCN[C@@H]1CCc2ccccc21 [Rasagiline mesylate, rasagiline mesylate]
water absorption (hygroscopicity) [1]: absorbed large amounts of water and liquefied
fraction ≦ 250 μm [2]: 100.0%
d(0.1) ± SD [2]: 13.6 ± 0.05 μm
d(0.5) ± SD [2]: 40.5 ± 0.25 μm
d(0.9) ± SD [2]: 85.7 ± 0.89 μm
solubility in citric acid solution [7]: very high
solubility in citric acid solution (Granulation 2 without mannitol): very high
appearance after storage under humid conditions [4]: sticky powder which is difficult to process
agglomerates after storage [5]: agglomerates
portion of decomposed active substance [6, 8]: 0.46%
portion of decomposed active substance [6, 9]: 0.00%
portion of decomposed active substance [6, 10]: 2.6%
portion of decomposed active substance [6, 11]: 0.00%
portion of decomposed active substance [6, 12]: 1.3%
portion of decomposed active substance [6, 13]: 0.00%

Rasagiline Oxalate
water absorption (hygroscopicity) [1]: no water absorption
fraction ≦ 250 μm [2]: 98.1%
d(0.1) ± SD [2]: 19.9 ± 0.02 μm
d(0.5) ± SD [2]: 53.0 ± 0.09 μm
d(0.9) ± SD [2]: 120.5 ± 0.66 μm
pH of the saturated solution ([3]; 0.1 N HCl): 1.2
solubility ([3]; 0.1 N HCl): 29.9 mg/mL
pH of the saturated solution ([3]; Demineralized water): 2.7
solubility ([3]; Demineralized water): 19.7 mg/mL
pH of the saturated solution ([3]; USP acetate buffer, pH 4.5): 3.4
solubility ([3]; USP acetate buffer, pH 4.5): 24.3 mg/mL
pH of the saturated solution ([3]; USP phosphate buffer, pH 6.8): 3.4
solubility ([3]; USP phosphate buffer, pH 6.8): 24.2 mg/mL
solubility in words [3]: much more difficult to dissolve
appearance ([5]; 4 weeks): unchanged
appearance ([5]; 8 weeks): unchanged
appearance ([5]; 12 weeks): unchanged
appearance / agglomerates of the salt as produced [5]: white crystal powder which is free of agglomerates
formation of agglomerates after long storage [5]: does not form any agglomerates

rasagiline phosphate
solubility in citric acid solution [7]: high
solubility in citric acid solution (Granulation 2 without mannitol): high
appearance after storage under humid conditions [4]: sticky powder which is difficult to process
total content of chemical contaminations ([4]; 4 weeks): 0.05%
water content ([4]; 4 weeks): 0.2%
total content of chemical contaminations ([4]; 8 weeks): 0.19%
water content ([4]; 8 weeks): 0.4%
total content of chemical contaminations ([4]; t0): 0.0%
water content ([4]; t0): 0.1%
agglomerates after storage [5]: agglomerates
portion of decomposed active substance [6, 8]: 2.9%
portion of decomposed active substance [6, 9]: 0.00%
portion of decomposed active substance [6, 10]: 3.0%
portion of decomposed active substance [6, 11]: 0.00%
portion of decomposed active substance [6, 12]: 2.5%
portion of decomposed active substance [6, 13]: 0.00%

rasagiline tartrate
fraction ≦ 250 μm [2]: 97.2%
d(0.1) ± SD [2]: 5.0 ± 0.04 μm
d(0.5) ± SD [2]: 40.9 ± 0.57 μm
d(0.9) ± SD [2]: 161.2 ± 1.34 μm
appearance ([4]; 4 weeks): unchanged
appearance ([4]; 8 weeks): unchanged
appearance ([4]; 12 weeks): unchanged
appearance ([5]; 4 weeks): unchanged
appearance ([5]; 8 weeks): unchanged
appearance ([5]; 12 weeks): unchanged
appearance / agglomerates of the salt as produced [5]: undesired agglomerates
portion of decomposed active substance [6, 8]: 2.5%
portion of decomposed active substance [6, 9]: 0.00%
portion of decomposed active substance [6, 10]: 3.1%
portion of decomposed active substance [6, 11]: 0.00%
portion of decomposed active substance [6, 12]: 2.8%
portion of decomposed active substance [6, 13]: 0.00%
